For one data set, the system named is Puccinia recondita. The data set is described as follows: Puccinia test (wheat)/curative. The settings on record: 192 h, wheat plants, curative spray 48 hours after inoculation, application rate 500 g/ha, evaluation 8 days after inoculation, read-out: Efficacy in %. Type of data set: in vivo. The procedure:
(§1) To produce a suitable preparation of active compound, 1 part by weight of active compound is mixed with the stated amounts of solvent and emulsifier, and the concentrate is diluted with water to the desired concentration.
To test for curative activity, young plants are sprayed with a conidia suspension of Puccinia recondita. The plants remain in an incubation cabin at 20° C. and 100% relative atmospheric humidity for 48 hours. The plants are then sprayed with the preparation of active compound at the stated application rates.
The plants are then placed in a greenhouse at a temperature of about 20° C. and a relative atmospheric humidity of 80% to promote the development of rust pustules.
Evaluation is carried out 8 days after the inoculation. 0% means an efficacy which corresponds to that of the control, whereas an efficacy of 100% means that no infection is observed.

The next data set has as its system Podosphaera leucotricha. The data set is described as follows: Podosphaera test (apple)/protective. Type of data set: in vivo. To be noted: 240 h, apple plants, protective spray, application rate 100 g/ha, evaluation 10 days after inoculation, read-out: Efficacy in %. How it is done: To produce a suitable preparation of active compound, 1 part by weight of compound is mixed with the stated amounts of solvents and emulsifier, and the concentrate is diluted with water to the desired concentration.
To test for protective activity, young plants are sprayed with the preparation of active compound at the stated application rates. After the spray coating has dried on, the plants are inoculated with an aqueous spore suspension of the apple mildew pathogen Podosphaera leucotricha. The plants are then placed in a greenhouse at about 23° C. and a relative atmospheric humidity of about 70%.
Evaluation is carried out 10 days after the inoculation. 0% means an efficacy which corresponds to that of the control, whereas an efficacy of 100% means that no infection is observed.

For another data set, the system named is Botrytis cinerea. The data set is described as follows: Botrytis test (bean)/protective. Format: in vivo. To be noted: 48 h, bean plants, protective spray, application rate 500 g/ha, evaluation two days after inoculation, read-out: Efficacy in %. How it is done: To produce a suitable preparation of active compound, 1 part by weight of active compound is mixed with the stated amounts of solvents and emulsifier, and the concentrate is diluted with water to the desired concentration.
To test for protective activity, young plants are sprayed with the preparation of active compound at the stated application rates. After the spray coating has dried on, 2 small pieces of agar colonized by Botrytis cinerea are placed onto each leaf. The inoculated plants are placed in a dark chamber at about 20° C. and 100% relative atmospheric humidity.
Two days after the inoculation, the size of the infected areas on the leaves is evaluated. 0% means an efficacy which corresponds to that of the control, whereas an efficacy of 100% means that no infection is observed.

The next data set relates to Venturia inaequalis. The data set is described as follows: Venturia test (apple)/protective. Format: in vivo. To be noted: apple plants, protective spray, application rate 100 g/ha, read-out: Efficacy in %. How it is done:
[table] To produce a suitable preparation of active compound, 1 part by weight of active compound is mixed with the stated amounts of solvents and emulsifier, and the concentrate is diluted with water to the desired concentration. To test for protective activity, young plants are sprayed with the preparation of active compound at the stated application rates. After the spray coating has dried on, the plants are inoculated with an aqueous conidia suspension of the apple scab pathogen Venturia inaequalis and then remain in an incubation cabin at about 20° C. and 100% relative atmospheric humidity for 1 day. The plants are then placed in a greenhouse at about 21° C. and a relative atmospheric humidity of about 90%.

Data set [1] can be described thus: logP determination by HPLC on reversed phase column (C 18), EEC-Directive 79/831 Annex V.A8. Format: physicochemical. The settings on record: reversed phase HPLC column (C 18), pH 2.3, 0.1% aqueous phosphoric acid/acetonitrile gradient, 43° C. The procedure: The determination of the logP values given in preparation examples and tables above is carried out according to EEC-Directive 79/831 Annex V.A8 by HPLC (High Performance Liquid Chromatography) on a reversed phase column (C 18). Temperature: 43° C.
Determination is carried out in the acidic range at pH 2.3 using the mobile phases 0.1% aqueous phosphoric acid and acetonitrile; linear gradient from 10% acetonitrile to 90% acetonitrile.
Calibration is carried out using unbranched alkan-2-ones (of 3 to 16 carbon atoms) whose logP values are known (determination of the logP values by retention times using linear interpolation between two successive alkanones).

Another data set has as its system Sphaerotheca fuliginea. The data set is described as follows: Sphaerotheca test (cucumber)/protective. Format: in vivo. The settings on record: cucumber plants, protective spray; application rate 750 g/ha; evaluation 7 days after inoculation. How it is done:
as §1
To test for protective activity, young cucumber plants are sprayed with the preparation of active compound at the stated application rates. One day after the treatment, the plants are inoculated with a spore suspension of Sphaerotheca fuliginea. The plants are then placed in a greenhouse at 70% relative atmospheric humidity and a temperature of 23° C.
Evaluation is carried out 7 days after the inoculation. 0% means an efficacy which corresponds to that of the control, whereas an efficacy of 100% means that no infection is observed.

Where a name gives a salt, the structure may show the parent alone.

Consider `Cc1ccccc1C(=O)Nc1ccccc1CCC(C)C`, for which the pest or weed control at 500 g/ha with Puccinia recondita stood at 100%.

With `Cc1ccsc1C(=O)Nc1ccccc1CCC(C)(C)C` [drawing 121], the pest or weed control at 500 g/ha in the data set with Puccinia recondita worked out at 100%.

For `CCC(C)(C)CCc1ccccc1NC(=O)c1cn(C)nc1C(F)F` [drawing 98], in the data set with Podosphaera leucotricha, the pest or weed control at 100 g/ha was determined as 100%.

On to `Cn1nc(C(F)(F)F)c(C(=O)Nc2ccccc2CCC(C)(C)C)c1F` [drawing 100], for which the pest or weed control at 100 g/ha in the data set with Podosphaera leucotricha is 100%.

Consider `Cc1ccsc1C(=O)Nc1ccccc1CCC(C)(C)C` [drawing 95], for which the pest or weed control at 100 g/ha with Podosphaera leucotricha worked out at 99%.

As for `Cc1nn(C)c(F)c1C(=O)Nc1ccccc1CCC(C)C` [drawing 110], in the data set on Botrytis cinerea, the pest or weed control at 500 g/ha stood at 84%.

Regarding `Cc1nn(C)c(F)c1C(=O)Nc1ccccc1CCC(C)C` [drawing 93], the pest or weed control at 100 g/ha in the data set with Podosphaera leucotricha was found to be 100%.

For `CCC(C)(C)CCc1ccccc1NC(=O)c1c(C)nn(C)c1F` [drawing 105], in the data set with Venturia inaequalis, the pest or weed control at 100 g/ha came to 100%.

As to `Cc1nn(C)c(F)c1C(=O)Nc1ccccc1CCC(C)(C)C` [drawing 111], the pest or weed control at 500 g/ha with Botrytis cinerea is 100%.

For `CCC(C)(C)CCc1ccccc1NC(=O)c1cn(C)nc1C(F)F` [drawing 106], the pest or weed control at 100 g/ha with Venturia inaequalis is 100%.

With `Cc1ccccc1C(=O)Nc1ccccc1CCC(C)(C)C` [drawing 113], the pest or weed control at 500 g/ha in the data set on Botrytis cinerea is 87%.

For the compound `Cc1nn(C)c(F)c1C(=O)Nc1ccccc1CCC(C)C` [drawing 119], the pest or weed control at 500 g/ha in the data set with Puccinia recondita amounted to 100%.

In the case of `CC(C)CCc1ccccc1NC(=O)c1ccccc1C(F)(F)F` [drawing 122], the pest or weed control at 500 g/ha in the data set on Puccinia recondita was found to be 100%.

Consider `CCC(C)(C)CCc1ccccc1NC(=O)c1cn(C)nc1C(F)F` [drawing 125], for which the pest or weed control at 500 g/ha with Puccinia recondita was 100%.

As for `Cc1nn(C)c(F)c1C(=O)Nc1ccccc1CCC(C)(C)C` [drawing 94], the pest or weed control at 100 g/ha in the data set with Podosphaera leucotricha came to 100%.

Take `Cn1cc(C(=O)Nc2ccccc2CCC(C)(C)C)c(C(F)F)n1` [drawing 116]: the pest or weed control at 500 g/ha with Botrytis cinerea was 100%.

As usually defined, the chromatographic logP is lipophilicity estimated from chromatographic retention. For the compound `CC(=O)Nc1ccccc1C#CC(C)(C)C` [Example (XIII-1), N-[2-(3,3-dimethylbut-1-ynyl)-phenyl]acetamide], the chromatographic logP in data set [1] stood at 3.03.

As for `Cn1nc(C(F)(F)F)c(C(=O)Nc2ccccc2CCC(C)(C)C)c1F` [drawing 108], in the data set with Venturia inaequalis, the pest or weed control at 100 g/ha was 100%.

Regarding `Cc1ccccc1C(=O)Nc1ccccc1CCC(C)(C)C` [drawing 96], the pest or weed control at 100 g/ha with Podosphaera leucotricha was 97%.

For `Cc1ccsc1C(=O)Nc1ccccc1CCC(C)(C)C` [drawing 112], in the data set with Botrytis cinerea, the pest or weed control at 500 g/ha was found to be 100%.

In data set [1], `CC(C)(C)CCc1ccccc1N` [Example (III-3), 2-(3,3-dimethylbutyl)phenylamine hydrochloride] gave a chromatographic logP of 2.2.

In the case of `Cc1nn(C)c(F)c1C(=O)Nc1ccccc1CCC(C)(C)C` [drawing 102], the pest or weed control at 100 g/ha in the data set on Venturia inaequalis came out at 100%.

Consider `Cn1cc(C(=O)Nc2ccccc2CCC(C)(C)C)c(C(F)F)n1` [drawing 99], for which the pest or weed control at 100 g/ha in the data set with Podosphaera leucotricha came to 100%.

Take `Cc1ccccc1C(=O)Nc1ccccc1CCC(C)(C)C` [drawing 104]: in the data set on Venturia inaequalis, the pest or weed control at 100 g/ha turned out to be 97%.

Regarding `Cn1cc(C(=O)Nc2ccc(F)cc2CCC(C)(C)C)c(C(F)F)n1` [drawing 109], in the data set on Venturia inaequalis, the pest or weed control at 100 g/ha was determined as 100%.

In the case of `CCC(C)(C)CCc1ccccc1NC(=O)c1c(C)nn(C)c1F` [drawing 114], the pest or weed control at 500 g/ha in the data set with Botrytis cinerea came to 100%.

Take `Cc1nn(C)c(F)c1C(=O)Nc1ccccc1CCC(C)C` [drawing 101]: the pest or weed control at 100 g/ha in the data set with Venturia inaequalis worked out at 96%.

In the data set with Sphaerotheca fuliginea, `Cc1ccsc1C(=O)Nc1ccccc1CCC(C)(C)C` [drawing 129] had an Efficacy in % of 100%.

In data set [1], `Cc1nn(C)c(F)c1C(=O)Nc1ccccc1C(=O)CC(C)C` [Example (V-1)] yielded a chromatographic logP of 3.42.

In the data set on Sphaerotheca fuliginea, `CC(C)CCc1ccccc1NC(=O)c1ccccc1C(F)(F)F` [drawing 130] returned an Efficacy in % of 100%.

With `CC(C)CC(=O)c1ccccc1N` [Example (X-1), 1-(2-aminophenyl)-3-methylbutan-1-one], the chromatographic logP in data set [1] was 2.89.

On to `Cc1ccsc1C(=O)Nc1ccccc1CCC(C)(C)C` [drawing 103], for which, in the data set on Venturia inaequalis, the pest or weed control at 100 g/ha turned out to be 99%.

In turn, `CC(=O)Nc1ccccc1CCC(C)(C)C` [Example (III-2), N-[2-(3,3-dimethylbutyl)phenyl]acetamide] registered a chromatographic logP in data set [1] of 2.69.

With `Cc1ccccc1C(=O)Nc1ccccc1CCC(C)(C)C` [drawing 131], the Efficacy in % with Sphaerotheca fuliginea amounted to 100%.

On to `Cn1cc(C(=O)Nc2ccc(F)cc2CCC(C)(C)C)c(C(F)F)n1` [drawing 118], for which the pest or weed control at 500 g/ha in the data set on Botrytis cinerea came to 100%.

For the compound `Cn1nc(C(F)(F)F)c(C(=O)Nc2ccccc2CCC(C)(C)C)c1F` [drawing 117], the pest or weed control at 500 g/ha in the data set with Botrytis cinerea was determined as 100%.

For `CC(C)(C)C#Cc1ccccc1NC(=O)c1ccccc1C(F)(F)F` [Example (VII-1), N-[2-(3,3-dimethylbut-1-ynyl)phenyl]-2-trifluoromethylbenzamide], the chromatographic logP in data set [1] turned out to be 4.55.

As to `CCC(C)(C)CCc1ccccc1NC(=O)c1c(C)nn(C)c1F` [drawing 124], in the data set with Puccinia recondita, the pest or weed control at 500 g/ha turned out to be 100%.

With `CCC(C)(C)CCc1ccccc1NC(=O)c1cn(C)nc1C(F)F` [drawing 115], in the data set on Botrytis cinerea, the pest or weed control at 500 g/ha came to 100%.

For `Cn1cc(C(=O)Nc2ccc(F)cc2CCC(C)(C)C)c(C(F)F)n1` [drawing 127], the pest or weed control at 500 g/ha in the data set on Puccinia recondita amounted to 100%.

For `CCC(C)(C)CCc1ccccc1NC(=O)c1c(C)nn(C)c1F` [drawing 97], the pest or weed control at 100 g/ha in the data set with Podosphaera leucotricha is 99%.

On to `Cn1cc(C(=O)Nc2ccccc2CCC(C)(C)C)c(C(F)F)n1` [drawing 107], for which the pest or weed control at 100 g/ha in the data set with Venturia inaequalis worked out at 100%.

Take `Cn1cc(C(=O)Nc2ccccc2CCC(C)(C)C)c(C(F)F)n1` [drawing 126]: the pest or weed control at 500 g/ha in the data set on Puccinia recondita came to 100%.

`Cc1nn(C)c(F)c1C(=O)Nc1ccccc1CCC(C)(C)C` [drawing 120]: in the data set with Puccinia recondita, the pest or weed control at 500 g/ha amounted to 100%.

Turning to `Cc1nn(C)c(F)c1C(=O)Nc1ccccc1CCC(C)C` [drawing 128], in the data set on Sphaerotheca fuliginea, the Efficacy in % is 100%.

For the compound `Cc1nn(C)c(F)c1C(=O)Nc1ccccc1CCC(C)C` [Example 1, 5-fluoro-1,3-dimethyl-N-[2-(3-methylbutyl)phenyl]-1H-pyrazole-4-carboxamide], the chromatographic logP in data set [1] is 3.12.

The values are drawn from patent publication US7879760B2, “Isopentyl carboxanilides for combating undesired micro-organisms” (Bayer CropScience AG, priority 2003, dated 2011).
